Marks after values point to notes of the source that are not given here.
Tests used:
[1] = tested on: finished market barrows; test: Performance test to subjective fatigue (Example V); assay type: in vivo, pig; conditions: 30 mg/kg BW oral daily; performance test on day 7, 0.88 m/s
Experimental: Fourteen days prior to harvest, 20 finished market barrows (initial body weight 268 pounds) were randomly assigned to 1 of 2 treatments: 0 or 30 mg/kg body weight of nicotinamide riboside, both orally administered daily in 20 ml of Karo® Syrup. Ten days prior to harvest, pigs were restrained via a snare and treatments were administered. On day 7, barrows were subjected to a performance test where they were walked around a track at 0.88 m/s until subjective fatigue was achieved. Three days following the performance test, barrows were harvested and a portion of the semitendinosus muscle was collected within 45 minutes. These samples were analyzed for NAD+ content via HPLC methodology.

[2] = tested on: growing pigs; test: Oral NR for 7 days in growing pigs: average daily gain and loin eye area (Example III); assay type: in vivo, pig
Experimental: Nine growing pigs were blocked by bodyweight (BW) and placed in metabolism crates. After a 3-day acclimation period, pigs within each BW block were randomly assigned to a treatment (n=3 pigs/treatment). Treatments comprised pigs supplemented 0, 15, or 30 mg/kg BW NR for 7 days. Pigs were allowed ad libitum access to a standard growing diet and water. Treatments were administered daily at 8 a.m. by mixing NR in 20 mL of Karo® dark syrup and orally drenching the pigs. On day 0 and 3 of the trial, muscle biopsies of the LL were taken for NAD+ analysis using standard procedures. At day 7, pigs were transported to the Kansas State University Meats Laboratory and euthanized by a captive penetrating bolt to the brain, followed by exsanguination. Following harvest procedures, 3 g of the LL were collected for NAD+ analysis. Twenty-four hours after harvest, the whole LL not sampled at harvest was removed from the carcass and aged 10 days. After aging, the LL was cut into 6 chops for retail color stability analysis, including 6-day surface oxy- and metmyoglobin percentage, 6-day objective and subjective color panel evaluation, and day 4 and 6 metmyoglobin reducing ability (MRA).

[3] = tested on: Fertilized broiler eggs (Cobb 500); test: NR concentration on avian embryonic myogenesis, d 19 embryo morphometrics (Example II); assay type: in vivo, chicken; conditions: 100 μl into yolk d 10, d 19 embryos
Experimental: Fertilized broiler eggs (n=60; Cobb 500) were randomly assigned to 1 of 4 treatments: 0.0, 250, 500, or 1,000 mM NR in sterile saline. At day 10 of incubation, 100 μl of treatment solution was injected into the egg yolk. Eggs were incubated at 37±3° C. and a relative humidity of 40±2%. At day 19 of incubation, embryos were euthanized by prolonged exposure to CO2 gas and decapitation. Measurements including: embryo weight; crown-rump length; chest circumference (CC); and left Pectoralis major (PM) weight, length, width, and depth were collected.

Question: With NC(=O)c1ccc[n+]([C@@H]2O[C@H](CO)[C@@H](O)[C@H]2O)c1 [Nicotinamide riboside, nicotinamide riboside] as the compound, how does the “Ran farther (distance) than unsupplemented barrows, numerically” value [1] read?
Answer: 16%

Question: What about the “Ran longer (time to subjective fatigue) than unsupplemented barrows, numerically” value [1] of the same compound?
Answer: 19%

Question: What about the “Loin eye area (LEA) vs 0 mg/kg” value ([2]; 15 mg/kg BW oral daily) of the same compound?
Answer: did not differ

Question: What about the “Better ADG compared to pigs in the other two treatments (numerical trend)” value ([2]; 30 mg/kg BW oral daily) of the same compound?
Answer: 4.4%

Question: And the “Larger loin eyes than pigs fed 0 mg/kg NR” value ([2]; 30 mg/kg BW oral daily)?
Answer: 52%

Question: What about the “Larger loin eyes than pigs fed 15 mg/kg NR” value ([2]; 30 mg/kg BW oral daily) of the same compound?
Answer: 48%

Question: And the Body weight ([3]; 250 mM NR)?
Answer: 46.42 g

Question: What about the Chest circumference ([3]; 250 mM NR) of the same compound?
Answer: 6.0^a,b cm

Question: And the “Crown to rump length” value ([3]; 250 mM NR)?
Answer: 83.69^a mm

Question: And the Head circumference ([3]; 250 mM NR)?
Answer: 5.3^a cm

Question: What about the Head length ([3]; 250 mM NR) of the same compound?
Answer: 17.70 mm

Question: What about the Head width ([3]; 250 mM NR) of the same compound?
Answer: 15.42 mm

Question: And the “Organ weight, heart” value ([3]; 250 mM NR)?
Answer: 0.23 g

Question: What about the “Organ weight, liver” value ([3]; 250 mM NR) of the same compound?
Answer: 0.74 g

Question: What about the Pectoralis major length ([3]; 250 mM NR) of the same compound?
Answer: 16.73^b mm

Question: And the “Pectoralis major maximum thickness” value ([3]; 250 mM NR)?
Answer: 2.56^b mm

Question: What about the Pectoralis major weight ([3]; 250 mM NR) of the same compound?
Answer: 0.13^a,b g

Question: What about the Pectoralis major width ([3]; 250 mM NR) of the same compound?
Answer: 4.90^a,b mm

Question: What about the Body weight ([3]; 500 mM NR) of the same compound?
Answer: 46.25 g

Question: What about the Chest circumference ([3]; 500 mM NR) of the same compound?
Answer: 6.3^b cm

Question: What about the “Crown to rump length” value ([3]; 500 mM NR) of the same compound?
Answer: 85.14^a mm

Question: What about the Head circumference ([3]; 500 mM NR) of the same compound?
Answer: 5.6^b cm

Question: What about the Head length ([3]; 500 mM NR) of the same compound?
Answer: 17.60 mm

Question: What about the Head width ([3]; 500 mM NR) of the same compound?
Answer: 15.49 mm

Question: What about the “Organ weight, heart” value ([3]; 500 mM NR) of the same compound?
Answer: 0.23 g

Question: And the “Organ weight, liver” value ([3]; 500 mM NR)?
Answer: 0.72 g

Question: What about the Pectoralis major length ([3]; 500 mM NR) of the same compound?
Answer: 17.51^b mm

Question: And the “Pectoralis major maximum thickness” value ([3]; 500 mM NR)?
Answer: 2.36^a,b mm

Question: What about the Pectoralis major weight ([3]; 500 mM NR) of the same compound?
Answer: 0.16^b g

Question: And the Pectoralis major width ([3]; 500 mM NR)?
Answer: 5.32^b mm

Question: And the Body weight ([3]; 1,000 mM NR)?
Answer: 45.97 g

Question: And the Chest circumference ([3]; 1,000 mM NR)?
Answer: 6.6^b cm

Question: What about the “Crown to rump length” value ([3]; 1,000 mM NR) of the same compound?
Answer: 88.20^b mm

Question: What about the Head circumference ([3]; 1,000 mM NR) of the same compound?
Answer: 5.7^b cm

Question: And the Head length ([3]; 1,000 mM NR)?
Answer: 17.98 mm

Question: What about the Head width ([3]; 1,000 mM NR) of the same compound?
Answer: 15.69 mm

Question: And the “Organ weight, heart” value ([3]; 1,000 mM NR)?
Answer: 0.24 g

Question: What about the “Organ weight, liver” value ([3]; 1,000 mM NR) of the same compound?
Answer: 0.67 g

Question: What about the Pectoralis major length ([3]; 1,000 mM NR) of the same compound?
Answer: 17.44^b mm

Question: And the “Pectoralis major maximum thickness” value ([3]; 1,000 mM NR)?
Answer: 2.64^b mm

Question: What about the Pectoralis major weight ([3]; 1,000 mM NR) of the same compound?
Answer: 0.15^b g

Question: And the Pectoralis major width ([3]; 1,000 mM NR)?
Answer: 5.61^b mm
